In brackets after ≈: the same amount, converted by molar mass.
Key:
Format in all cases: functional
Candida albicans [1] = test: Antimicrobial activity against Candida albicans MTCC 227 assessed as diameter of growth inhibition zone at 50 ug/ml after 48-96 hr by agar cup diffusion method; settings: read-out: DIZ
Penicillium [2] = test: Antimicrobial activity against Penicillium wild strain assessed as diameter of growth inhibition zone at 250 ug/ml after 48-96 hr by agar cup diffusion method; settings: read-out: DIZ
Staphylococcus aureus [3] = test: Antimicrobial activity against Staphylococcus aureus MTCC 96 assessed as diameter of growth inhibition zone at 25 ug/ml after 18-24 hr by agar cup diffusion method; settings: read-out: DIZ
Streptococcus pyogenes [4] = test: Antimicrobial activity against Streptococcus pyogenes MTCC 442 by agar cup diffusion method
Escherichia coli [5] = test: Antimicrobial activity against Escherichia coli MTCC 443 assessed as diameter of growth inhibition zone at 50 ug/ml after 18-24 hr by agar cup diffusion method; settings: read-out: DIZ
Penicillium [6] = test: Antimicrobial activity against Penicillium wild strain assessed as diameter of growth inhibition zone at 100 ug/ml after 48-96 hr by agar cup diffusion method; settings: read-out: DIZ
Pseudomonas aeruginosa [7] = test: Antimicrobial activity against Pseudomonas aeruginosa MTCC 1688 assessed as diameter of growth inhibition zone at 250 ug/ml after 18-24 hr by agar cup diffusion method; settings: read-out: DIZ
Streptococcus pyogenes [8] = test: Antimicrobial activity against Streptococcus pyogenes MTCC 442 assessed as diameter of growth inhibition zone at 100 ug/ml after 18-24 hr by agar cup diffusion method; settings: read-out: DIZ
Klebsiella pneumoniae [9] = test: Antimicrobial activity against Klebsiella pneumoniae MTCC 109 assessed as diameter of growth inhibition zone at 25 ug/ml after 18-24 hr by agar cup diffusion method; settings: read-out: DIZ
Staphylococcus aureus [10] = test: Antimicrobial activity against Staphylococcus aureus MTCC 96 assessed as diameter of growth inhibition zone at 50 ug/ml after 18-24 hr by agar cup diffusion method; settings: read-out: DIZ
Candida albicans [11] = test: Antimicrobial activity against Candida albicans MTCC 227 assessed as diameter of growth inhibition zone at 100 ug/ml after 48-96 hr by agar cup diffusion method; settings: read-out: DIZ
Staphylococcus aureus [12] = test: Antimicrobial activity against Staphylococcus aureus MTCC 96 assessed as diameter of growth inhibition zone at 100 ug/ml after 18-24 hr by agar cup diffusion method; settings: read-out: DIZ
Escherichia coli [13] = test: Antimicrobial activity against Escherichia coli MTCC 443 assessed as diameter of growth inhibition zone at 250 ug/ml after 18-24 hr by agar cup diffusion method; settings: read-out: DIZ
Aspergillus clavatus [14] = test: Antimicrobial activity against Aspergillus clavatus MTCC 1323 assessed as diameter of growth inhibition zone at 100 ug/ml after 48-96 hr by agar cup diffusion method; settings: read-out: DIZ
Aspergillus clavatus [15] = test: Antimicrobial activity against Aspergillus clavatus MTCC 1323 assessed as diameter of growth inhibition zone at 50 ug/ml after 48-96 hr by agar cup diffusion method; settings: read-out: DIZ
Escherichia coli [16] = test: Antimicrobial activity against Escherichia coli MTCC 443 assessed as diameter of growth inhibition zone at 25 ug/ml after 18-24 hr by agar cup diffusion method; settings: read-out: DIZ
Aspergillus clavatus [17] = test: Antimicrobial activity against Aspergillus clavatus MTCC 1323 assessed as diameter of growth inhibition zone at 25 ug/ml after 48-96 hr by agar cup diffusion method; settings: read-out: DIZ
Klebsiella pneumoniae [18] = test: Antimicrobial activity against Klebsiella pneumoniae MTCC 109 assessed as diameter of growth inhibition zone at 50 ug/ml after 18-24 hr by agar cup diffusion method; settings: read-out: DIZ
Pseudomonas aeruginosa [19] = test: Antimicrobial activity against Pseudomonas aeruginosa MTCC 1688 by agar cup diffusion method
Candida albicans [20] = test: Antimicrobial activity against Candida albicans MTCC 227 assessed as diameter of growth inhibition zone at 25 ug/ml after 48-96 hr by agar cup diffusion method; settings: read-out: DIZ
Trichophyton rubrum [21] = test: Antimicrobial activity against Trichophyton rubrum MTCC 296 by agar cup diffusion method
Aspergillus clavatus [22] = test: Antimicrobial activity against Aspergillus clavatus MTCC 1323 by agar cup diffusion method
Escherichia coli [23] = test: Antimicrobial activity against Escherichia coli MTCC 443 by agar cup diffusion method
Klebsiella pneumoniae [24] = test: Antimicrobial activity against Klebsiella pneumoniae MTCC 109 assessed as diameter of growth inhibition zone at 100 ug/ml after 18-24 hr by agar cup diffusion method; settings: read-out: DIZ
Staphylococcus aureus [25] = test: Antimicrobial activity against Staphylococcus aureus MTCC 96 by agar cup diffusion method
Penicillium [26] = test: Antimicrobial activity against Penicillium wild strain by agar cup diffusion method
Penicillium [27] = test: Antimicrobial activity against Penicillium wild strain assessed as diameter of growth inhibition zone at 50 ug/ml after 48-96 hr by agar cup diffusion method; settings: read-out: DIZ
Pseudomonas aeruginosa [28] = test: Antimicrobial activity against Pseudomonas aeruginosa MTCC 1688 assessed as diameter of growth inhibition zone at 50 ug/ml after 18-24 hr by agar cup diffusion method; settings: read-out: DIZ
Trichophyton rubrum [29] = test: Antimicrobial activity against Trichophyton rubrum MTCC 296 assessed as diameter of growth inhibition zone at 50 ug/ml after 48-96 hr by agar cup diffusion method; settings: read-out: DIZ
Trichophyton rubrum [30] = test: Antimicrobial activity against Trichophyton rubrum MTCC 296 assessed as diameter of growth inhibition zone at 100 ug/ml after 48-96 hr by agar cup diffusion method; settings: read-out: DIZ
Penicillium [31] = test: Antimicrobial activity against Penicillium wild strain assessed as diameter of growth inhibition zone at 25 ug/ml after 48-96 hr by agar cup diffusion method; settings: read-out: DIZ
Staphylococcus aureus [32] = test: Antimicrobial activity against Staphylococcus aureus MTCC 96 assessed as diameter of growth inhibition zone at 250 ug/ml after 18-24 hr by agar cup diffusion method; settings: read-out: DIZ
Escherichia coli [33] = test: Antimicrobial activity against Escherichia coli MTCC 443 assessed as diameter of growth inhibition zone at 100 ug/ml after 18-24 hr by agar cup diffusion method; settings: read-out: DIZ
Klebsiella pneumoniae [34] = test: Antimicrobial activity against Klebsiella pneumoniae MTCC 109 assessed as diameter of growth inhibition zone at 250 ug/ml after 18-24 hr by agar cup diffusion method; settings: read-out: DIZ
Trichophyton rubrum [35] = test: Antimicrobial activity against Trichophyton rubrum MTCC 296 assessed as diameter of growth inhibition zone at 25 ug/ml after 48-96 hr by agar cup diffusion method; settings: read-out: DIZ
Candida albicans [36] = test: Antimicrobial activity against Candida albicans MTCC 227 assessed as diameter of growth inhibition zone at 250 ug/ml after 48-96 hr by agar cup diffusion method; settings: read-out: DIZ
Trichophyton rubrum [37] = test: Antimicrobial activity against Trichophyton rubrum MTCC 296 assessed as diameter of growth inhibition zone at 250 ug/ml after 48-96 hr by agar cup diffusion method; settings: read-out: DIZ
Streptococcus pyogenes [38] = test: Antimicrobial activity against Streptococcus pyogenes MTCC 442 assessed as diameter of growth inhibition zone at 25 ug/ml after 18-24 hr by agar cup diffusion method; settings: read-out: DIZ
Klebsiella pneumoniae [39] = test: Antimicrobial activity against Klebsiella pneumoniae MTCC 109 by agar cup diffusion method
Streptococcus pyogenes [40] = test: Antimicrobial activity against Streptococcus pyogenes MTCC 442 assessed as diameter of growth inhibition zone at 250 ug/ml after 18-24 hr by agar cup diffusion method; settings: read-out: DIZ
Pseudomonas aeruginosa [41] = test: Antimicrobial activity against Pseudomonas aeruginosa MTCC 1688 assessed as diameter of growth inhibition zone at 100 ug/ml after 18-24 hr by agar cup diffusion method; settings: read-out: DIZ
Aspergillus clavatus [42] = test: Antimicrobial activity against Aspergillus clavatus MTCC 1323 assessed as diameter of growth inhibition zone at 250 ug/ml after 48-96 hr by agar cup diffusion method; settings: read-out: DIZ
Streptococcus pyogenes [43] = test: Antimicrobial activity against Streptococcus pyogenes MTCC 442 assessed as diameter of growth inhibition zone at 50 ug/ml after 18-24 hr by agar cup diffusion method; settings: read-out: DIZ
Pseudomonas aeruginosa [44] = test: Antimicrobial activity against Pseudomonas aeruginosa MTCC 1688 assessed as diameter of growth inhibition zone at 25 ug/ml after 18-24 hr by agar cup diffusion method; settings: read-out: DIZ
Candida albicans [45] = test: Antimicrobial activity against Candida albicans MTCC 227 by agar cup diffusion method

Question: Which zone of inhibition at 50 µg/mL (Candida albicans [1]) does the source give for `COc1ccc(/C=C/C(=O)C2C(=O)NC(=S)NC2=O)cc1OC` here?
Answer: 24 mm

Question: What about the zone of inhibition at 250 µg/mL (Penicillium [2]) of the same molecule?
Answer: 24 mm

Question: What about the zone of inhibition at 25 µg/mL (Staphylococcus aureus [3]) of the same molecule?
Answer: 11 mm

Question: And the MBC (Streptococcus pyogenes [4])?
Answer: 100 µg/mL (≈ 299 µM)

Question: And the MIC (Streptococcus pyogenes [4])?
Answer: 62.5 µg/mL (≈ 187 µM)

Question: What about the zone of inhibition at 50 µg/mL (Escherichia coli [5]) of the same molecule?
Answer: 16 mm

Question: What about the zone of inhibition at 100 µg/mL (Penicillium [6]) of the same molecule?
Answer: 22 mm

Question: What about the zone of inhibition at 250 µg/mL (Pseudomonas aeruginosa [7]) of the same molecule?
Answer: 20 mm

Question: What about the zone of inhibition at 100 µg/mL (Streptococcus pyogenes [8]) of the same molecule?
Answer: 18 mm

Question: And the zone of inhibition at 25 µg/mL (Klebsiella pneumoniae [9])?
Answer: 14 mm

Question: And the zone of inhibition at 50 µg/mL (Staphylococcus aureus [10])?
Answer: 15 mm

Question: What about the zone of inhibition at 100 µg/mL (Candida albicans [11]) of the same molecule?
Answer: 25 mm

Question: And the zone of inhibition at 100 µg/mL (Staphylococcus aureus [12])?
Answer: 18 mm

Question: And the zone of inhibition at 250 µg/mL (Escherichia coli [13])?
Answer: 21 mm

Question: And the zone of inhibition at 100 µg/mL (Aspergillus clavatus [14])?
Answer: 21 mm

Question: And the zone of inhibition at 50 µg/mL (Aspergillus clavatus [15])?
Answer: 20 mm

Question: What about the zone of inhibition at 25 µg/mL (Escherichia coli [16]) of the same molecule?
Answer: 12 mm

Question: And the zone of inhibition at 25 µg/mL (Aspergillus clavatus [17])?
Answer: 18 mm

Question: What about the zone of inhibition at 50 µg/mL (Klebsiella pneumoniae [18]) of the same molecule?
Answer: 15 mm

Question: And the MBC (Pseudomonas aeruginosa [19])?
Answer: 200 µg/mL (≈ 598 µM)

Question: What about the MIC (Pseudomonas aeruginosa [19]) of the same molecule?
Answer: 200 µg/mL (≈ 598 µM)

Question: And the zone of inhibition at 25 µg/mL (Candida albicans [20])?
Answer: 20 mm

Question: And the MFC (Trichophyton rubrum [21])?
Answer: 500 µg/mL (≈ 1500 µM)

Question: And the MIC (Trichophyton rubrum [21])?
Answer: 500 µg/mL (≈ 1500 µM)

Question: What about the MFC (Aspergillus clavatus [22]) of the same molecule?
Answer: 1000 µg/mL (≈ 2990 µM)

Question: What about the MIC (Aspergillus clavatus [22]) of the same molecule?
Answer: 1000 µg/mL (≈ 2990 µM)

Question: What about the MBC (Escherichia coli [23]) of the same molecule?
Answer: 500 µg/mL (≈ 1500 µM)

Question: What about the MIC (Escherichia coli [23]) of the same molecule?
Answer: 500 µg/mL (≈ 1500 µM)

Question: What about the zone of inhibition at 100 µg/mL (Klebsiella pneumoniae [24]) of the same molecule?
Answer: 18 mm

Question: And the MBC (Staphylococcus aureus [25])?
Answer: 500 µg/mL (≈ 1500 µM)

Question: What about the MIC (Staphylococcus aureus [25]) of the same molecule?
Answer: 500 µg/mL (≈ 1500 µM)

Question: What about the MFC (Penicillium [26]) of the same molecule?
Answer: 1000 µg/mL (≈ 2990 µM)

Question: What about the MIC (Penicillium [26]) of the same molecule?
Answer: 1000 µg/mL (≈ 2990 µM)

Question: What about the zone of inhibition at 50 µg/mL (Penicillium [27]) of the same molecule?
Answer: 20 mm

Question: And the zone of inhibition at 50 µg/mL (Pseudomonas aeruginosa [28])?
Answer: 15 mm

Question: What about the zone of inhibition at 50 µg/mL (Trichophyton rubrum [29]) of the same molecule?
Answer: 22 mm

Question: And the zone of inhibition at 100 µg/mL (Trichophyton rubrum [30])?
Answer: 23 mm

Question: And the zone of inhibition at 25 µg/mL (Penicillium [31])?
Answer: 19 mm

Question: What about the zone of inhibition at 250 µg/mL (Staphylococcus aureus [32]) of the same molecule?
Answer: 20 mm

Question: What about the zone of inhibition at 100 µg/mL (Escherichia coli [33]) of the same molecule?
Answer: 18 mm

Question: And the zone of inhibition at 250 µg/mL (Klebsiella pneumoniae [34])?
Answer: 19 mm

Question: And the zone of inhibition at 25 µg/mL (Trichophyton rubrum [35])?
Answer: 21 mm

Question: What about the zone of inhibition at 250 µg/mL (Candida albicans [36]) of the same molecule?
Answer: 25 mm

Question: And the zone of inhibition at 250 µg/mL (Trichophyton rubrum [37])?
Answer: 24 mm

Question: What about the zone of inhibition at 25 µg/mL (Streptococcus pyogenes [38]) of the same molecule?
Answer: 12 mm

Question: And the MBC (Klebsiella pneumoniae [39])?
Answer: 500 µg/mL (≈ 1500 µM)

Question: And the MIC (Klebsiella pneumoniae [39])?
Answer: 250 µg/mL (≈ 748 µM)

Question: What about the zone of inhibition at 250 µg/mL (Streptococcus pyogenes [40]) of the same molecule?
Answer: 21 mm

Question: And the zone of inhibition at 100 µg/mL (Pseudomonas aeruginosa [41])?
Answer: 18 mm

Question: And the zone of inhibition at 250 µg/mL (Aspergillus clavatus [42])?
Answer: 23 mm

Question: What about the zone of inhibition at 50 µg/mL (Streptococcus pyogenes [43]) of the same molecule?
Answer: 16 mm

Question: What about the zone of inhibition at 25 µg/mL (Pseudomonas aeruginosa [44]) of the same molecule?
Answer: 11 mm

Question: And the MFC (Candida albicans [45])?
Answer: 1000 µg/mL (≈ 2990 µM)

Question: And the MIC (Candida albicans [45])?
Answer: 500 µg/mL (≈ 1500 µM)
